Reference: patent publication US20110110879A1, “Compositions and Methods for Enhancing Eyelashes” (Avon Products, Inc., priority 2009, published 2011)

How the values were obtained:
[1] = tested on: keratin 5; assay: In vitro assay for keratin 5 production in keratinocytes; format: cell-based; conditions: concentration of 0.01%
[2] = tested on: lipid peroxidation in keratinocytes; assay: In vitro assay of lipid peroxidation in keratinocytes; format: cell-based; conditions: concentration of 0.001%
[3] = tested on: collagen IV; conditions: fibroblasts; concentrations of 2×10^−5% and 2×10^−6%
[4] = tested on: elastin; conditions: fibroblasts; concentrations of 2×10^−5% and 2×10^−6%
[5] = target: MMP-3 (Homo sapiens, UniProt P08254); assay: In vitro assay of MMP-3 enzymatic activity; format: biochemical; conditions: concentration of 2×10^−7%
MMP-3, sequence (P08254 100-477, species assumed): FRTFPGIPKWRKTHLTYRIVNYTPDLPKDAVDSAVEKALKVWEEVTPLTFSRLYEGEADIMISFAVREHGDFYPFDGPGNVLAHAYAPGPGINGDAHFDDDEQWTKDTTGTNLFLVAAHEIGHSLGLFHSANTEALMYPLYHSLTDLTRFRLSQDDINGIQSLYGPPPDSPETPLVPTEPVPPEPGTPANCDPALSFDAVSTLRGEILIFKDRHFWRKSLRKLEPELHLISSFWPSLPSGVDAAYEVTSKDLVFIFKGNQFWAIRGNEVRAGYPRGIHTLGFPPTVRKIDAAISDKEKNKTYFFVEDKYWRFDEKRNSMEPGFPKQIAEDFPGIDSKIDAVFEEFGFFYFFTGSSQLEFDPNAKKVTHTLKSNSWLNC

[6] = tested on: fibronectin; conditions: fibroblasts; concentrations of 2×10^−5% and 2×10^−6%

`CN(CC(=O)O)C(=N)N` [creatine] was tested. Which “keratin 5 production” value [1] did it give?
Its value is “can increase keratin 5 production”.

How did the lipid peroxidation [2] turn out when `CC(=O)Oc1c(C)c(C)c2c(c1C)CCC(C)(CCC[C@H](C)CCC[C@H](C)CCCC(C)C)O2` (stereo partly drawn) [tocopherol acetate] was run?
Its lipid peroxidation is “can inhibit lipid peroxidation”.

N-biotinyl-gly-his-lys was tested. Which “production of collagen IV” value [3] did it give?
Its value is “can increase production”.

And the production of elastin [4]?
Its production of elastin is “can increase production”.

What about the “enzymatic activity of MMP-3” value [5] of the same compound?
The value was “can decrease enzymatic activity”.

And the production of fibronectin [6]?
The production of fibronectin was “can increase production”.
